This test deals with 556581-035-R-J1-PDC complex spheroid viability. Nature of the test: Anticancer human tumor 556581-035-R-J1-PDC patient-derived ovarian carcinoma cell line growth inhibition. The note with it: for viability, T/C: stronger effect = lower value. The gist of the method: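 Complex spheroids of tumor cells with HUVEC and human MSCs, exposed to iadademstat combined with other agents. Each agent tested in half-log steps from near clinical Cmax (else 10 microM top), DMSO ≤0.25%.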

[1] abbreviates: curve of first compound, second compound 0.1 µM.
Setting [2] is: curve of first compound, second compound 0.316 µM.
The mark [3] stands for this setting: curve of first compound, second compound 1 µM.
Setting [4] is: curve of first compound, second compound 3.16 µM.
Setting [5] is: curve of first compound, second compound 10 µM.
Setting [6] is: second compound 0.1 µM, first compound 0.000949 µM.
Where [7] appears, read: second compound 0.1 µM, first compound 0.003 µM.
The mark [8] stands for this setting: second compound 0.1 µM, first compound 0.00949 µM.
The mark [9] stands for this setting: second compound 0.1 µM, first compound 0.03 µM.
Where [10] appears, read: second compound 0.1 µM, first compound 0.0949 µM.
Where [11] appears, read: second compound 0.1 µM, first compound 0.3 µM.
The mark [12] stands for this setting: second compound 0.316 µM, first compound 0.000949 µM.
The mark [13] stands for this setting: second compound 0.316 µM, first compound 0.003 µM.
[14] abbreviates: second compound 0.316 µM, first compound 0.00949 µM.
The mark [15] stands for this setting: second compound 0.316 µM, first compound 0.03 µM.
[16] abbreviates: second compound 0.316 µM, first compound 0.0949 µM.
Setting [17] is: second compound 0.316 µM, first compound 0.3 µM.
Setting [18] is: second compound 1 µM, first compound 0.000949 µM.
Where [19] appears, read: second compound 1 µM, first compound 0.003 µM.
Where [20] appears, read: second compound 1 µM, first compound 0.00949 µM.
The mark [21] stands for this setting: second compound 1 µM, first compound 0.03 µM.
The mark [22] stands for this setting: second compound 1 µM, first compound 0.0949 µM.
[23] abbreviates: second compound 1 µM, first compound 0.3 µM.
[24] abbreviates: second compound 3.16 µM, first compound 0.000949 µM.
Setting [25] is: second compound 3.16 µM, first compound 0.003 µM.
[26] abbreviates: second compound 3.16 µM, first compound 0.00949 µM.
The mark [27] stands for this setting: second compound 3.16 µM, first compound 0.03 µM.
The mark [28] stands for this setting: second compound 3.16 µM, first compound 0.0949 µM.
[29] abbreviates: second compound 3.16 µM, first compound 0.3 µM.
Where [30] appears, read: second compound 10 µM, first compound 0.000949 µM.
[31] abbreviates: second compound 10 µM, first compound 0.003 µM.
Setting [32] is: second compound 10 µM, first compound 0.00949 µM.
Where [33] appears, read: second compound 10 µM, first compound 0.03 µM.
Setting [34] is: second compound 10 µM, first compound 0.0949 µM.
Where [35] appears, read: second compound 10 µM, first compound 0.3 µM.

Where “and” joins values, the source holds several entries; their conditions need not be identical. Identical values can stand only once.
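Note: spheroids exposed to agents for seven days.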
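Throughout, for viability, T/C: 100% = DMSO vehicle control wells.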

In the case of `Nc1ccn(C2OC(CO)C(O)C2(F)F)c(=O)n1` (stereo unspecified) + NC1CCC(NC2CC2c2ccccc2)CC1, the IC50 is 2.48 nM under setting [1]; 2.57 nM under setting [2]; 2.34 nM under setting [3]; 2.4 nM under setting [4]; 1.98 nM under setting [5]. Besides, the viability, T/C reads like this: under setting [6], 75.4%; under setting [7], 44.4%; under setting [8], 43.3%; under setting [9], 39.6%; under setting [10], 40.3%; under setting [11], 36.5%. For the same compound, the viability, T/C was 76.9% under setting [12]; 45.8% under setting [13]; 33.2% under setting [14]; 36% under setting [15]; 34.5% under setting [16]; 34.1% under setting [17]. Further, the viability, T/C runs as follows: under setting [18], 65.5%; under setting [19], 48.3%; under setting [20], 33.5%; under setting [21], 42.7%; under setting [22], 40.5%; under setting [23], 37.8%. Besides, the viability, T/C is 63% under setting [24]; 46.3% under setting [25]; 41.5% under setting [26]; 42.8% under setting [27]; 40.7% under setting [28]; 36.1% under setting [29]. For the same compound, the viability, T/C is, setting by setting: under setting [30], 61.1%; under setting [31], 44.9%; under setting [32], 36.8%; under setting [33], 42.2%; under setting [34], 38.3%; under setting [35], 42.7%.
For `Nc1ccn(C2OC(CO)C(O)C2(F)F)c(=O)n1` (stereo unspecified) + NC1CC1c1ccc(-c2cccc(O)c2)cc1, the IC50 under setting [1] worked out at 1.32 nM; the half-inhibitory concentration (IC50) under setting [2] turned out to be 1.4 nM; the half-inhibitory concentration (IC50) under setting [3] is 1.94 nM; the IC50 under setting [4] worked out at 1.75 nM; the half-inhibitory concentration (IC50) under setting [5] is 1.83 nM. Besides, the viability, T/C by setting is: under setting [6], 58.8%; under setting [7], 28.2%; under setting [8], 22.4%; under setting [9], 26.8%; under setting [10], 29.3%; under setting [11], 27%. Moreover, the viability, T/C under setting [12] is 60.1%; the viability, T/C under setting [13] was 30.7%; the viability, T/C under setting [14] was 24.3%; the viability, T/C under setting [15] is 25%; the viability, T/C under setting [16] is 29.3%; the viability, T/C under setting [17] was 27.1%. Moreover, the viability, T/C by setting is: under setting [18], 74%; under setting [19], 36.5%; under setting [20], 24.2%; under setting [21], 25.4%; under setting [22], 29.9%; under setting [23], 22.9%. Also, the viability, T/C was 71% under setting [24]; 31.3% under setting [25]; 28.9% under setting [26]; 26.5% under setting [27]; 28.5% under setting [28]; 29% under setting [29]. The viability, T/C runs as follows: under setting [30], 67.2%; under setting [31], 37.3%; under setting [32], 34.1%; under setting [33], 29.8%; under setting [34], 37.1%; under setting [35], 34.1%.
On to `CC(C)CC(NC(=O)C(Cc1ccccc1)NC(=O)c1cnccn1)B(O)O` (stereo unspecified), for which the viability, T/C runs as follows: (compound 0.000316 µM) 7.73% and 2.05%; (compound 0.001 µM) 0.26% and 0.43%; (compound 0.00316 µM) 1.04% and 0.46%; (compound 0.01 µM) 0.22% and 0.28%; (compound 0.0316 µM) 0.85% and 0.24%; (compound 0.1 µM) 0.44% and 0.39%. The 50% inhibitory concentration (IC50) (curve of compound) is under 0.316 nM.
As for `NC1CC1c1ccc(-c2cccc(O)c2)cc1` (stereo unspecified), the viability, T/C is 91.5% [middle of 4 runs] (compound 0.1 µM) and 89.2% [middle of 24 runs] (compound 3.16 µM). The IC50 (compound alone, run of 02/21/2022) is over 10000 nM.
Turning to `CC1COCCN1c1cc(C2(S(C)(=N)=O)CC2)nc(-c2ccnc3[nH]ccc23)n1` (stereo unspecified), the viability, T/C reads like this: (compound 0.0316 µM) 107%; (compound 0.1 µM) 110% and 94.2%; (compound 0.316 µM) 95.2% and 97.8%; (compound 1 µM) 79.8% and 74.4%; (compound 3.16 µM) 68.2% and 69.1%; (compound 10 µM) 62.3% and 52.5%. Further, the concentration for half-maximal inhibition (IC50) (curve of compound) was over 10000 nM.
As to `CCN(c1cc(-c2ccc(CN3CCOCC3)cc2)cc(C(=O)NCc2c(C)cc(C)[nH]c2=O)c1C)C1CCOCC1`, the viability, T/C is, setting by setting: (compound 0.00949 µM) 101% and 102%; (compound 0.03 µM) 105% and 88.1%; (compound 0.0949 µM) 87.8% and 88.1%; (compound 0.3 µM) 81.4% and 79.2%; (compound 0.949 µM) 60.2% and 46.9%; (compound 3 µM) 44.3% and 24.2%. For the same compound, the half-inhibitory concentration (IC50) (curve of compound) is 2010 nM and 895 nM.
`CC(C)CC(NC(=O)CNC(=O)c1cc(Cl)ccc1Cl)B1OC(=O)CC(CC(=O)O)(C(=O)O)O1` (stereo unspecified): the viability, T/C runs as follows: (compound 0.000316 µM) 99.8% and 102%; (compound 0.001 µM) 98.2% and 102%; (compound 0.00316 µM) 63.3% and 46%; (compound 0.01 µM) 2.06% and 2.7%; (compound 0.0316 µM) 0.74% and 1.23%; (compound 0.1 µM) 0.66% and 0.61%. Besides, the 50% inhibitory concentration (IC50) (curve of compound) is 4.06 nM and 2.91 nM.
On to `CCN(c1cc(-c2ccc(CN3CCOCC3)cc2)cc(C(=O)NCc2c(C)cc(C)[nH]c2=O)c1C)C1CCOCC1` + NC1CC1c1ccc(-c2cccc(O)c2)cc1, for which the IC50 was found to be 776 nM under setting [1]; 732 nM under setting [2]; 633 nM under setting [3]; 466 nM under setting [4]; 666 nM under setting [5]. Moreover, the viability, T/C reads like this: under setting [8], 106%; under setting [9], 92.2%; under setting [10], 86.7%; under setting [11], 73.4%; (second compound 0.1 µM, first compound 0.949 µM) 42.5%; (second compound 0.1 µM, first compound 3 µM) 25.1%. Also, the viability, T/C by setting is: under setting [14], 105%; under setting [15], 95.5%; under setting [16], 78.5%; under setting [17], 69.3%; (second compound 0.316 µM, first compound 0.949 µM) 42.7%; (second compound 0.316 µM, first compound 3 µM) 27.4%. The viability, T/C under setting [20] was 94.2%; the viability, T/C under setting [21] is 84.7%; the viability, T/C under setting [22] was 84.8%; the viability, T/C under setting [23] is 66.8%; the viability, T/C (second compound 1 µM, first compound 0.949 µM) was 40.5%; the viability, T/C (second compound 1 µM, first compound 3 µM) was 30.5%. Moreover, the viability, T/C reads like this: under setting [26], 98.7%; under setting [27], 102%; under setting [28], 78%; under setting [29], 58.1%; (second compound 3.16 µM, first compound 0.949 µM) 39.4%; (second compound 3.16 µM, first compound 3 µM) 32.5%. Moreover, the viability, T/C is 83.6% under setting [32]; 87.7% under setting [33]; 82.1% under setting [34]; 63.6% under setting [35]; 44.6% (second compound 10 µM, first compound 0.949 µM); 30.6% (second compound 10 µM, first compound 3 µM).

In general, IC50 refers to the point on the concentration scale where inhibition reaches its midpoint. For orientation: viability, T/C means the ratio of treated to control.

For the origin of these results see PubChem BioAssay AID1918938 (Molecular Pharmacology Branch, DTP, NCI, 2023).
